Reference: patent US20050075375A1 (priority 2003, published 2005)
Where two headings read alike, the source gives them in different places.

System: monocistronic NK5.1 HCV replicon in Huh7 cells
Assay: HCV replicon assay, monocistronic replicon cell line
Type: cell-based, hepatitis C virus
Details: Hepatitis C virus, read-out: Mono EC50 Median
Text: HCV Replicon Assays (Replicon EC50 (μM))
HCV replication can be measured by a replicon assay such as described by Vrolijk et al, J. Virol. Methods 110:201(2003), which is hereby incorporated in its entirety by reference. The method was implemented as follows.
Monocistronic Replicon Cell Line:
Human hepatocyte Huh7 cells containing the monocistronic NK5.1 replicon were obtained from Ralf Bartenschlager at the University of Mainz, Germany. These cells were maintained under hygromycin selection and passaged when 80-90% confluent.
This cell line contains an autonomously replicating RNA element (replicon) incorporating the non-structural HCV elements necessary for replication, and upon which the survival of the replicon in the cell depends. This replicon contains a single internal ribosome entry site (HCV IRES). Inhibition of any of the critical HCV finctions by a compound leads to loss of the replicon as measured by HCV replicon RNA copy number reduction. The amount of HCV RNA present following a standard incubation with a compound is a measure of the anti-HCV activity of the compound. The assay was conducted by preparing sufficient 96-well plates containing these cells, wherein cells are seeded at 6000 cells/well in a 96-well plate, in 200 μl of final media volume. Cells were then incubated for 24 hours at 37 C., 5% CO2, and 95% humidity before compound was added. Six point half-log concentration response assays were conducted to determine potency/EC50 of Formula I compounds to inhibit HCV replicon replication. The final percent DMSO acceptable in this assay system is 0.6%. Compounds were diluted in media in an appropriate format and 5 μl of each drug dilution is added to each well. Cells were then incubated with compounds for 3 days at 37 C., 5% CO2, and 95% humidity. Following the three day incubation period, plates were washed twice with phosphate buffered saline to remove media and cells were lysed with Qiagen extraction buffer. RNA was extracted and isolated with the Qiagen RNAeasy kit according to the manufacturer's protocol (Qiagen). TaqMan One-Step RT-PCR was used in conjunction with an ABI 7700 Sequence Detector (Applied Biosystems) for the quantitation and analysis of HCV replicon RNA copy number. A GAPDH probe was used for internal normalization. The ratio of HCV RNA to cellular GAPDH RNA was determined and compared to the DMSO-only treated control, and the ratio of HCV RNA/GAPDH RNA was used for an EC50 determination and as a measure of specificity for inhibition of the HCV replicon.

[1] = Huh-7, 72 h, Table 1, monocistronic replicon in Huh7 cells, 3 days incubation, HCV RNA/GAPDH RNA by TaqMan RT-PCR
[2] = Huh-7, 72 h, table T3 (compounds 471-640), monocistronic replicon in Huh7 cells, 3 days incubation, HCV RNA/GAPDH RNA by TaqMan RT-PCR
[3] = Huh-7, monocistronic NK5.1 HCV replicon in Huh7 cells, median value

Row | SMILES | EC50 [1] [µM] | EC50 [3] [µM] | further results
1 | Oc1c(Cl)cc(Cl)cc1-c1cc(-c2ccccn2)on1 [Compound 127, 2,4-Dichloro-6-(5-pyridin-2-yl-isoxazol-3-yl)-phenol] | 7.4 | – | –
2 | COc1ccc(O)c(-c2ccn(Cc3ncc(C)c(OC)c3C)n2)c1 [Compound 101, 4-Methoxy-2-[1-(4-methoxy-3,5-dimethyl-pyridin-2-ylmethyl)-1H-pyrazol-3-yl]-phenol] | 14.6 | – | –
3 | Oc1ccc(Br)cc1-c1ncn(-c2ccccn2)n1 [Compound 631, 4-Bromo-2-(1-pyridin-2-yl-1H-[1,2,4]triazol-3-yl)-phenol] | – | – | EC50 [2]: 1.4 µM
4 | Cc1ccccc1-c1nnc(-c2ncccc2C(F)(F)F)o1 [Compound 340, 2-(5-o-Tolyl-[1,3,4]oxadiazol-2-yl)-3-trifluoromethyl-pyridine] | – | > 32 | –
5 | CCOc1cccc(-c2nc(-c3ncccc3Br)n[nH]2)c1O [Compound 489, 2-[5-(3-Bromo-pyridin-2-yl)-2H-[1,2,4]triazol-3-yl]-6-Ethoxy-phenol] | – | – | EC50 [2]: 22 µM
6 | Oc1ccc2ccccc2c1-c1nc(-c2ncccc2C(F)(F)F)n[nH]1 [Compound 549, 1-[5-(3-trifluoromethyl-pyridin-2-yl)-2H-[1,2,4]triazol-3-yl]-naphthalen-2-ol] | – | – | EC50 [2]: > 19 µM
7 | Fc1ccccc1-c1nnc(-c2ccco2)o1 [Compound 336, 2-(2-Fluoro-phenyl)-5-furan-2-yl-[1,3,4]oxadiazole] | – | > 32 | –
8 | O=[N+]([O-])c1ccc(O)c(-c2nc(-c3ccc(C(F)(F)F)cn3)n[nH]2)c1 [Compound 508, 4-Nitro-2-[5-(5-trifluoromethyl-pyridin-2-yl)-2H-[1,2,4]triazol-3-yl]-phenol] | – | – | EC50 [2]: > 19 µM
9 | COc1cccc(-c2nc(-c3cccc(C)n3)n[nH]2)c1 [Compound 405, 2-[5-(3-Methoxy-phenyl)-1H-[1,2,4]triazol-3-yl]-6-methyl-pyridine] | – | > 19 | –
10 | COc1cccnc1-c1noc(-c2cc(Br)ccc2O)n1 [Compound 249, 4-Bromo-2-[3-(3-methoxy-pyridin-2-yl)-[1,2,4]oxadiazol-5-yl]-phenol] | 0.76 | 0.76 | –
11 | O=[N+]([O-])c1cccnc1-c1noc(-c2cc(Cl)ccc2O)n1 [Compound 154, 4-Chloro-2-[3-(3-nitro-pyridin-2-yl)-[1,2,4]oxadiazol-5-yl]-phenol] | > 19 | – | –
12 | COc1ccc(-c2ccnn2-c2ncc(C(F)(F)F)cc2Cl)c(F)c1 [Compound 48, 3-Chloro-2-[5-(2-fluoro-4-methoxy-phenyl)-pyrazol-1-yl]-5-trifluoromethyl-pyridine] | 15 | – | –
13 | Cc1cc(O)c(-c2cc(C)n(-c3nc4ccccc4s3)n2)cc1C [Compound 23, 2-(l-Benzothiazol-2-yl-5-methyl-1H-pyrazol-3-yl)-4,5-dimethyl-phenol] | > 19 | – | –
14 | Oc1ccccc1-c1nc(-c2ccccn2)no1 [Compound 133, 2-(3-Pyridin-2-yl-[1,2,4]oxadiazol-5-yl)-phenol] | > 19 | – | –
15 | COc1ccc(O)c(-c2cc(-c3ncccc3C)on2)c1 [Compound 132, 4-Methoxy-2-[5-(3-methyl-pyridin-2-yl)-isoxazol-3-yl]-phenol] | 2 | – | –
16 | Cc1cccnc1-c1n[nH]c(-c2cc(C(C)(C)C)ccc2O)n1 [Compound 441, 4-tert-Butyl-2-[5-(3-methyl-pyridin-2-yl)-2H-[1,2,4]triazol-3-yl]-phenol] | – | > 10 | –
17 | COc1ccc(-c2nc(-c3ncccc3C)nn2C)c(O)c1 [Compound 613, 5-Methoxy-2-[2-methyl-5-(3-methyl-pyridin-2-yl)-2H-[1,2,4]triazol-3-yl]-phenol] | – | – | EC50 [2]: 6.4 µM
18 | COc1ccccc1-c1nnc(-c2c(Cl)cccc2Cl)o1 [Compound 329, 2-(2,6-Dichloro-phenyl)-5-(2-methoxy-phenyl)-[1,3,4]oxadiazole] | – | > 32 | –
19 | Oc1ccccc1-c1nc(-c2nccc3ccccc23)n[nH]1 [Compound 377, 2-(5-isoquinolin-1-yl-2H-[1,2,4]triazol-3-yl)-phenol] | – | > 19 | –
20 | Cc1cccc(-c2n[nH]c(-c3cc([N+](=O)[O-])ccc3O)n2)n1 [Compound 392, 4-Nitro-2-(5-(6-methyl-pyridin-2-yl)-2H-[1,2,4]triazol-3-yl)-phenol] | – | > 19 | –

Row | SMILES | EC50 [1] [µM] | EC50 [3] [µM] | further results
21 | CCN(CC)c1ccc(-c2nc(-c3cnccn3)n[nH]2)c(O)c1 [Compound 587, 5-Diethylamino-2-(5-pyrazin-2-yl-2H-[1,2,4]triazol-3-yl)-phenol] | – | – | EC50 [2]: 23 µM
22 | CC(=O)Nc1ccc(-c2noc(-c3cc(C)ccc3O)n2)nc1 [Compound 264, N-{6-[5-(2-Hydroxy-5-methyl-phenyl)-[1,2,4]oxadiazol-3-yl]-pyridin-3-yl}-acetamide] | – | > 19 | –
23 | Cc1cc(-c2c(O)ccc3ccccc23)nn1-c1ccccc1 [Compound 4, 1-(5-Methyl-1-phenyl-1H-pyrazol-3-yl)-naphthalen-2-ol] | > 19 | – | –
24 | Cc1ccccc1-c1nnc(-c2ccccc2)o1 [Compound 312, 2-Phenyl-5-o-tolyl-[1,3,4]oxadiazole] | – | > 32 | –
25 | CCOC(=O)c1cc(-c2ccc(OC)cc2)n(-c2ncccc2[N+](=O)[O-])n1 [Compound 61, 5-(4-Methoxy-phenyl)-1-(3-nitro-pyridin-2-yl)-1H-pyrazole-3-carboxylic acid ethyl ester] | 19 | – | –
26 | O=[N+]([O-])c1cccnc1-c1n[nH]c(-c2cc(Br)ccc2O)n1 [Compound 556, 4-Bromo-2-[5-(3-nitro-pyridin-2-yl)-2H-[1,2,4]triazol-3-yl]-phenol] | – | – | EC50 [2]: > 3.2 µM
27 | Cc1cccnc1-c1n[nH]c(-c2cc(Cl)cc(Cl)c2O)n1 [Compound 622, 4,6-Dichloro-2-[5-(3-methyl-pyridin-2-yl)-2H-[1,2,4]triazol-3-yl]-phenol] | – | – | EC50 [2]: 1.4 µM
28 | COc1ccc(O)c(-c2ccn(-c3ccccn3)n2)c1 [Compound 84, 4-Methoxy-2-(1-pyridin-2-yl-1H-pyrazol-3-yl)-phenol] | 3.3 | – | –
29 | CCCOc1ccc(O)c(-c2nc(-c3ncccc3C)no2)c1 [Compound 272, 2-[3-(3-Methyl-pyridin-2-yl)-[1,2,4]oxadiazol-5-yl]-4-propoxy-phenol] | – | > 32 | –
30 | Fc1ccccc1-c1nnc(-c2ccccn2)o1 [Compound 347, 2-[5-(2-Fluoro-phenyl)-[1,3,4]oxadiazol-2-yl]-pyridine] | – | > 32 | –
31 | Cc1ccccc1-c1nnc(-c2ccccn2)o1 [Compound 339, 2-(5-o-Tolyl-[1,3,4]oxadiazol-2-yl)-pyridine] | – | > 32 | –
32 | COc1ccc2ccccc2c1-c1nc(-c2ccccn2)no1 [Compound 143, 2-[5-(2-Methoxy-naphthalen-1-yl)-[1,2,4]oxadiazol-3-yl]-pyridine] | 13 | – | –
33 | Fc1ccccc1-c1nnc(-c2ccccc2)o1 [Compound 332, 2-(2-Fluoro-phenyl)-5-phenyl-[1,3,4]oxadiazole] | – | > 32 | –
34 | COc1ccc(-c2cc(C(=O)O)nn2-c2ncccc2C(F)(F)F)cc1 [Compound 58] | > 32 | – | –
35 | Oc1ccc(Br)cc1-c1ccn(-c2ccccn2)n1 [Compound 97, 4-Bromo-2-(1-pyridin-2-yl-1H-pyrazol-3-yl)-phenol] | 22 | – | –
36 | COc1cccc(-c2nc(-c3nccc4ccccc34)n[nH]2)c1O [Compound 378, 6-Methoxy-2-(5-isoquinolin-1-yl-2H-[1,2,4]triazol-3-yl)-phenol] | – | 16 | –
37 | Cc1cc(-c2c(O)ccc3ccccc23)n(-c2ccccc2C(F)(F)F)n1 [Compound 6, 1-[5-Methyl-2-(2-trifluoromethyl-phenyl)-2H-pyrazol-3-yl]-naphthalen-2-ol] | 13 | – | –
38 | Cc1cccnc1-c1noc(-c2ccc(NC(=O)OC(C)(C)C)cc2O)n1 [Compound 276, {3-Hydroxy-4-[3-(3-methyl-pyridin-2-yl)-[1,2,4]oxadiazol-5-yl]-phenyl}-carbamic acid tert-butyl ester] | – | 0.7 | –
39 | COc1ccc(-c2ccnn2-c2ncccc2C(F)(F)F)c(F)c1 [Compound 52, 2-[5-(2-Fluoro-4-methoxy-phenyl)-pyrazol-1-yl]-3-trifluoromethyl-pyridine] | 2.1 | – | –
40 | COc1cccc(-c2nc(-c3ncccc3[N+](=O)[O-])no2)c1O [Compound 166, 2-Methoxy-6-[3-(3-nitro-pyridin-2-yl)-[1,2,4]oxadiazol-5-yl]-phenol] | > 19 | – | –
